# Assay results: article PMC6968503, “Synthesis and human carbonic anhydrase I, II, VA, and XII inhibition with novel amino acid–sulphonamide conjugates” (Journal of Enzyme Inhibition and Medicinal Chemistry, 2020)
# Read-outs that look alike come from different tables or passages of the source.
# Experiments:
# Experiment in all cases: stopped-flow CO2 hydration
# Type in all cases: biochemical
# [1] = target: T1, hCA XII (Homo sapiens, UniProt O43570)
# T1 construct: gene CA12
# From the text: stopped-flow CO2 hydration on hCA XII
# [2] = target: T2, hCA II (Homo sapiens, UniProt P00918)
# T2 construct: gene CA2
# From the text: stopped-flow CO2 hydration on hCA II
# [3] = target: T3, hCA I (Homo sapiens, UniProt P00915)
# T3 construct: gene CA1
# T3 sequence (P00915 2-261): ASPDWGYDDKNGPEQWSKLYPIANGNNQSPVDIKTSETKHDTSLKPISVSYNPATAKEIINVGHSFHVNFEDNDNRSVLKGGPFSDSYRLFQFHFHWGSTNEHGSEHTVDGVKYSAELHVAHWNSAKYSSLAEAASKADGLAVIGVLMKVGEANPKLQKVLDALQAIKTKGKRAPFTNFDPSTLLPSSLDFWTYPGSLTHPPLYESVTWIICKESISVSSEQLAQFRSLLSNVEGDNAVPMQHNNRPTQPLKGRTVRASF
# From the text: stopped-flow CO2 hydration on hCA I
# [4] = target: T4, hCA VA (Homo sapiens, UniProt P35218)
# T4 construct: gene CA5A
# T4 sequence (P35218 39-305): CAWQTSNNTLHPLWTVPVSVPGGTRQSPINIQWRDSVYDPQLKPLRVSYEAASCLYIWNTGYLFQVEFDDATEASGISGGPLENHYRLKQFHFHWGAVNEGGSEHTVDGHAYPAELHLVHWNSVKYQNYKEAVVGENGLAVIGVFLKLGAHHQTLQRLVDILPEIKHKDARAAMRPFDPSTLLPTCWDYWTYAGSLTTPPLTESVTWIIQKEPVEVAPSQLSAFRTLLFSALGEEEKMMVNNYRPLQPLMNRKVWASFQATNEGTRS
# From the text: stopped-flow CO2 hydration on hCA VA
# T1 sequence (O43570 25-354): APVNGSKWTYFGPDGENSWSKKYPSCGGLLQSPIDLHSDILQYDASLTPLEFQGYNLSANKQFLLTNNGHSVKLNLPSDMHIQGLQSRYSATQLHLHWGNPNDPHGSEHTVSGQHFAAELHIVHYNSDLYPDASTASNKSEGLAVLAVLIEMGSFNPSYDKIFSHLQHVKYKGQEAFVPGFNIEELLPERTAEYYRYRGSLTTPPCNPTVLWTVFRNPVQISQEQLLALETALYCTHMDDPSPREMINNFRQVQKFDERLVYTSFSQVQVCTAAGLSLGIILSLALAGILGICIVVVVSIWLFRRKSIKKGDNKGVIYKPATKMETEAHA
Structure (SMILES),Ki [1] [nM],Ki [2] [nM],Ki [3] [nM],Ki [4] [nM],"Ki ([4]; CO2 […], […] HEPES pH […] Na2SO4, […] min preincubation, room temperature) [nM]"
"NS(=O)(=O)c1ccc(CNC(=O)[C@H](Cc2ccccc2)NC(=O)OCC2c3ccccc3-c3ccccc32)cc1 [compound 20, (9H-fluoren-9-yl)methyl (S)-(1-oxo-3-phenyl-1-((4-sulphamoylbenzyl)amino)propan-2-yl)carbamate]",26.7,693,5170,6830,
"CC[C@@H](C)[C@@H](NC(=O)OC(C)(C)C)C(=O)NCCc1ccc(S(N)(=O)=O)cc1 [compound 11, tert-Butyl ((2R,3R)-3-methyl-1-oxo-1-((4-sulphamoylphenethyl)amino)pentan-2-yl)carbamate]",56.2,,349,3870,
"NS(=O)(=O)c1ccc(CNC(=O)[C@@H](Cc2c[nH]c3ccccc23)NC(=O)OCc2ccccc2)cc1 [compound 23, Benzyl (R)-(3-(1H-indol-3-yl)-1-oxo-1-((4-sulphamoylbenzyl)amino)propan-2-yl)carbamate]",78.1,0.9,305,401,
"NS(=O)(=O)c1ccc(CCNC(=O)CNC(=O)OCC2c3ccccc3-c3ccccc32)cc1 [compound 6, (9H-fluoren-9-yl)methyl (2-oxo-2-((4-sulphamoylphenethyl)amino)ethyl)carbamate]",8.2,6.4,36,67.9,
"NS(=O)(=O)c1ccc(CCNC(=O)C[C@@H](NC(=O)OCc2ccccc2)C(=O)NCCc2ccc(S(N)(=O)=O)cc2)cc1 [compound 12, Benzyl (R)-(1,4-dioxo-1,4-bis((4-sulphamoylphenethyl)amino)butan-2-yl)carbamate]",24.4,215,689,3140,
"NS(=O)(=O)c1ccc(CCNC(=O)[C@@H](Cc2c[nH]c3ccccc23)NC(=O)OCc2ccccc2)cc1 [compound 8, Benzyl (R)-(3-(1H-indol-3-yl)-1-oxo-1-((4-sulphamoylphenethyl)amino)propan-2-yl)carbamate]",5.5,6.5,528,3010,
"C[C@@H](NC(=O)OC(C)(C)C)C(=O)NCc1ccc(S(N)(=O)=O)cc1 [compound 18, tert-Butyl (R)-(1-oxo-1-((4-sulphamoylbenzyl)amino)propan-2-yl)carbamate]",20.6,6.8,3890,5360,
"CSCC[C@@H](NC(=O)OCc1ccccc1)C(=O)NCc1ccc(S(N)(=O)=O)cc1 [compound 14, Benzyl (R)-(4-(methylthio)-1-oxo-1-((4-sulphamoylbenzyl)amino)butan-2-yl)carbamate]",74.3,8.9,9.3,384,
"C[C@@H](NC(=O)OC(C)(C)C)C(=O)NCCc1ccc(S(N)(=O)=O)cc1 [compound 5, tert-Butyl (R)-(1-oxo-1-((4-sulphamoylphenethyl)amino)propan-2-yl)carbamate]",45.6,6.6,73.5,68.7,
"CSCC[C@H](NC(=O)OC(C)(C)C)C(=O)NCCc1ccc(S(N)(=O)=O)cc1 [compound 9, tert-Butyl (S)-(4-(methylthio)-1-oxo-1-((4-sulphamoylphenethyl)amino)butan-2-yl)carbamate]",329,,4390,611,
"CC(C)(C)OC(=O)N[C@H](Cc1ccccc1)C(=O)NCc1ccc(S(N)(=O)=O)cc1 [compound 19, tert-Butyl (R)-(1-oxo-3-phenyl-1-((4-sulphamoylbenzyl)amino)propan-2-yl)carbamate]",6.9,61.4,3780,734,
"NS(=O)(=O)c1ccc(CCNC(=O)[C@H](Cc2ccccc2)NC(=O)OCC2c3ccccc3-c3ccccc32)cc1 [compound 7, (9H-fluoren-9-yl)methyl (S)-(1-oxo-3-phenyl-1-((4-sulphamoylphenethyl)amino)propan-2-yl)carbamate]",38.9,76.4,697,3440,
"CC(C)C[C@@H](NC(=O)OCc1ccccc1)C(=O)NCCc1ccc(S(N)(=O)=O)cc1 [compound 1, Benzyl (R)-(4-methyl-1-oxo-1-((4-sulphamoylphenethyl)amino)pentan-2-yl)carbamate]",27.4,8.3,49.5,,58.7
"CC(C)(C)OC(=O)NCC(=O)NCc1ccc(S(N)(=O)=O)cc1 [compound 17, tert-Butyl (2-oxo-2-((4-sulphamoylbenzyl)amino)ethyl)carbamate]",8.8,6.8,3340,3650,
"CSCC[C@@H](NC(=O)OCc1ccccc1)C(=O)NCCc1ccc(S(N)(=O)=O)cc1 [compound 2, Benzyl (R)-(4-(methylthio)-1-oxo-1-((4-sulphamoylphenethyl)amino)butan-2-yl)carbamate]",53.9,1.7,,63.4,
"NS(=O)(=O)c1ccc(CCNC(=O)[C@@H](CSc2ccccc2)NC(=O)OCc2ccccc2)cc1 [compound 4, Benzyl (S)-(1-oxo-3-(phenylthio)-1-((4-sulphamoylphenethyl)amino)propan-2-yl)carbamate]",8.4,,352,63.3,
"CC(C)[C@@H](NC(=O)OC(C)(C)C)C(=O)NCc1ccc(S(N)(=O)=O)cc1 [compound 22, tert-Butyl (R)-(3-methyl-1-oxo-1-((4-sulphamoylbenzyl)amino)butan-2-yl)carbamate]",90.1,168,753,4780,
"NS(=O)(=O)c1ccc(CNC(=O)[C@@H](CSc2ccccc2)NC(=O)OCc2ccccc2)cc1 [compound 16, Benzyl (S)-(1-oxo-3-(phenylthio)-1-((4-sulphamoylbenzyl)amino)propan-2-yl)carbamate]",37.1,3.3,764,3960,
"CC(C)[C@@H](NC(=O)OCc1ccccc1)C(=O)NCc1ccc(S(N)(=O)=O)cc1 [compound 15, Benzyl (R)-(3-methyl-1-oxo-1-((4-sulphamoylbenzyl)amino)butan-2-yl)carbamate]",67.7,28.4,8.1,503,
"CC(C)C[C@@H](NC(=O)OCc1ccccc1)C(=O)NCc1ccc(S(N)(=O)=O)cc1 [compound 13, Benzyl (R)-(4-methyl-1-oxo-1-((4-sulphamoylbenzyl)amino)pentan-2-yl)carbamate]",39.8,86.6,61.1,578,
"CC(C)[C@@H](NC(=O)OCc1ccccc1)C(=O)NCCc1ccc(S(N)(=O)=O)cc1 [compound 3, Benzyl (R)-(3-methyl-1-oxo-1-((4-sulphamoylphenethyl)amino)butan-2-yl)carbamate]",7.2,,51.6,60.3,
"CSCC[C@@H](NC(=O)OC(C)(C)C)C(=O)NCc1ccc(S(N)(=O)=O)cc1 [compound 21, tert-Butyl (R)-(4-(methylthio)-1-oxo-1-((4-sulphamoylbenzyl)amino)butan-2-yl)carbamate]",3.9,316,5360,4990,
"CC(C)[C@@H](NC(=O)OC(C)(C)C)C(=O)NCCc1ccc(S(N)(=O)=O)cc1 [compound 10, tert-Butyl (R)-(3-methyl-1-oxo-1-((4-sulphamoylphenethyl)amino)butan-2-yl)carbamate]",197,,2990,661,
"CC[C@@H](C)[C@@H](NC(=O)OC(C)(C)C)C(=O)NCc1ccc(S(N)(=O)=O)cc1 [compound 24, tert-Butyl ((2R,3R)-3-methyl-1-oxo-1-((4-sulphamoylbenzyl)amino)pentan-2-yl)carbamate]",50.3,0.8,178,4580,
